From patent publication US10167258B2, “Inhibitors of mitochondrial pyruvate dehydrogenase kinase isoforms 1-4 and uses thereof” (The Board of Regents of the University of Texas System, priority 2013, dated 2019)
pIC50: −log10 of the molar value.

Experiments:
[1] = Food intake, body weight and fat mass of DIO mice; assay type: in vivo; conditions: 70 mg/kg/day
Experimental: (§1) Six- to eight-week old C57BL/6J male mice were obtained from the local campus breeding colony at UT Southwestern Medical Center (Dallas, Tex.) and randomized into two groups: vehicle- and PS10-treated. Prior to the treatment, mice were fed with a 60% high-fat diet, which contained 32% saturated and 68% unsaturated fat (catalog number: D12492, Research Diet Inc. New Brunswick, N.J.), for eight to ten weeks to produce DIO animals. PS-10 was dissolved in 100% DMSO and then diluted to make a 10% DMSO aqueous solution containing 17.5% (w/v) (2-hydroxypropyl)-β-cyclodextrin for delivery. Animals were dosed at mid-day by intraperitoneal (IP) injections at 70 mg/kg using 1-ml syringe and 30-gauge needle. The length of the treatment is indicted in each experiment. At 10 h after the last injection, animals were euthanized using carbon dioxide asphyxiation followed by cervical dislocation and dissection. Blood was harvested by cardiac puncture and stored on ice. Acidified citrate dextrose (ACD) was used as an anticoagulant. Immediately after blood collection, heart, liver, kidneys and both hind-leg quadriceps muscles were removed and snap frozen in liquid nitrogen. Average ischemia time before organ harvest was about 2 to 3 min. Blood was centrifuged in an Eppendorf 5415R refrigerated microcentrifuge at 9,300×g for 5 min to isolate plasma, which was subsequently stored at −80° C.

[2] = Solubility in DMSO used in the formulation; assay type: physicochemical; conditions: compared with PS8
[3] = system: DIO mice; test: Histochemistry of the liver (Oil Red O) of DIO mice; assay type: in vivo; conditions: 70 mg/kg/day
Experimental: Histological examination of the liver was performed in the institutional Immunohistochemistry Laboratory. Liver tissue was dissected, grossly trim then fixed by immersion for 48 hrs in 4% Formalin/PBS (4% […], 137 mM NaCl, 2.7 mM KCl and 10 mM phosphate buffer, pH 7.5) at 4° C. Liver samples were then transferred to 10% (w/v) sucrose in PBS and incubate at 4° C. for 24 hrs. Tissues were incubated in 18% sucrose in PBS at 4° C. for 24 hours. Finally, samples were transferred to a fresh 18% sucrose solution and embedded in OCT (Optimal cutting temperature compound), cryo-sectioned and stained with Oil Red O.

[4] = system: phosphorylated E1α subunit; test: Western blotting of phosphorylated E1α subunit in tissues of DIO mice; assay type: in vivo; conditions: single dose 70 mg/kg IP, 10 h
Experimental: as §1, with “C. […]” for “C.”

[5] = system: DIO mice; test: Blood biochemistry of DIO mice (lactate, cholesterol, triglycerides); assay type: in vivo; conditions: 70 mg/kg/day
Experimental: as §1
Glucose levels were determined with Sigma Diagnostics Glucose (Sigma Aldrich, St. Louis, Mo.). The levels of lactate, cholesterol, and triglyceride were measured by Vitros 250 blood chemistry analyzer (Johnson & Johnson Inc.) in the Metabolic Phenotyping Core in UT Southwestern Medical Center.

[6] = system: PDC; test: Assay for PDC activity in tissues of treated DIO mice; assay type: in vivo; conditions: single dose 70 mg/kg IP, 10 h
Experimental: as §1
Liquid nitrogen-stored tissue samples were removed and thawed on ice. Individual kidneys (200-250 mg), hearts (200-300 mg), muscle (200-300 mg) and liver (250-400 mg) tissues samples were manually homogenized in an ice-chilled glass homogenizer containing 1 ml of the homogenization buffer. The homogenization buffer contained 30 mM KPi, pH 7.5, 3 mM EDTA, 5 mM DTT, 1 mM benzamidine, 3% fetal bovine serum, 5% Triton X-100 and 1 mM leupeptin. Samples were transferred to ice-cold 10 ml polycarbonate tubes and spun in an ultracentrifuge at 25,000×g for 10 min to pellet cell and tissue debris. Supernatants were removed and stored on ice until diluted (1:3 for muscle, 1:5 for liver and 1:20 for kidneys and heart tissues) with a dilution buffer containing 50 mM HEPES, pH 7.5, 1.0 mM DTT, 0.1% Triton X-100, 5 mM DCA, 50 mM NaF, 3% fetal bovine serum and 1 mM leupeptin. The diluted samples (50 μl) were placed in each well of a 24-well plate containing 310 μl of the reaction mixture. A micro-bridge (Hampton Research) was pre-set into each well holding one piece of filter wick pre-soaked with 2 M NaOH. […] Assay plates were incubated further at 37° C. for 45 min. ^14CO2-trapped on 2 M NaOH soaked filter wicks were counted in a liquid scintillation counter. Total protein concentrations in the samples were determined by using BCA protein assay kit (Thermo fisher Scientific, Rockford, Ill.).

[7] = molecular target: PDK3 (Homo sapiens, UniProt Q15120); test: Assay for inhibition of PDK activity, PDK3; assay type: biochemical; design: made in house; conditions: absence of E2/E3BP core (−)
Experimental: Recombinant human PDK2 was expressed and purified as a N terminal His6-tagged SUMO fusion protein with a tobacco-etch-virus protease (TEV) cleavage site in front of the N-terminal PDK2 sequence (26), and was used directly for the activity assay and binding affinity analyses. For crystallization, the protein was subjected to a TEV-protease digestion, and the untagged PDK2 protein was purified on a Superdex 200 column in 20 mM Tris-HCl (pH 8.0), 150 mM NaCl and 5 mM DTT. The purified protein was concentrated to 35-40 mg/ml and stored at −80° C. in small aliquots. Recombinant human PDK1, PDK3 and PDK4 were expressed and purified as described previously (26).
. The remaining steps were described previously (26). IC50 values were obtained by the curve fitting of inhibition isotherms using Prism 6 (GraphPad software, Inc.).

Chain of PDK3 (Q15120 whole entry, the tested form may be a part): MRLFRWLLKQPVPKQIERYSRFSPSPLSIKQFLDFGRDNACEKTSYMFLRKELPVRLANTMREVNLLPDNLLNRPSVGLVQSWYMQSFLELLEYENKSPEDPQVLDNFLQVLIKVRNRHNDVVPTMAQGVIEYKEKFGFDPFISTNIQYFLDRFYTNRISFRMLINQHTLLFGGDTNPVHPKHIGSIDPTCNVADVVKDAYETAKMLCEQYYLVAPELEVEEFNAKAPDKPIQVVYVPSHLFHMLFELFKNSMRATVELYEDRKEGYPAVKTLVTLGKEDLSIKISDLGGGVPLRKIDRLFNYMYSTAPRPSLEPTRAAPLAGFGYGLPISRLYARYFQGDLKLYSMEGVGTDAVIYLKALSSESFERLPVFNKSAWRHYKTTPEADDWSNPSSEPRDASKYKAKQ

In the case of `O=S(=O)(c1ccc(O)cc1O)N1Cc2cc(O)cc(O)c2C1` [PS10, 2-((2,4-dihydroxyphenyl)sulfonyl)isoindoline-4,6-diol], the “body weight vs vehicle-treated” value [1] was “no significant differences”, the fat-mass vs vehicle-treated [1] was “reduction” and the “food intake vs vehicle-treated” value [1] was “no significant differences”. The “solubility in DMSO” value [2] was “better solubility in DMSO”, the “fat in the liver, Oil Red O stain” value [3] was “larger amounts of fat were present in the liver of the vehicle-treated DIO mice compared with PS10-treated” and the “amounts of the phosphorylated E1α subunit in heart and liver vs vehicle-treated” value [4] was “significantly decreased”. The “plasma cholesterol vs vehicle-treated” value [5] was “significantly lower”, the “plasma lactate vs vehicle-treated” value [5] was “significantly lower” and the “plasma triglycerides vs vehicle-treated” value [5] was “significantly lower”. For the same molecule, the “PDC activity in heart, fold over vehicle-treated” value [6] was 11 fold, the “PDC activity in kidneys, fold enhancement over vehicle-treated” value [6] was 1.4 fold and the “PDC activity in liver, fold over vehicle-treated” value [6] was 23 fold. The “PDC activity in quadriceps muscle vs vehicle-treated” value [6] was “no difference” and the pIC50 [7] was 4.67.
